From the NIST ThermoML archive (doi:10.1021/je060271a)

Conditions: 323.15 K, Liquid, Vibrating tube method

CCCCCCC(=O)OCC(COC(=O)CCCCCC)(COC(=O)CCCCCC)COC(=O)CCCCCC [pentaerythritol tetraheptanoate]
Conditions | mass density [kg/m3]
10134 kPa | 962.4
10149 kPa | 962.4
10164 kPa | 962.4
10178 kPa | 962.4
10196 kPa | 962.4
10211 kPa | 962.5
10229 kPa | 962.4
10244 kPa | 962.5
10259 kPa | 962.5
10274 kPa | 962.5
10292 kPa | 962.5
10307 kPa | 962.6
10322 kPa | 962.6
10338 kPa | 962.5
10356 kPa | 962.7
10371 kPa | 962.6
10386 kPa | 962.7
10405 kPa | 962.7
10420 kPa | 962.7
10436 kPa | 962.7
10468 kPa | 962.6
10487 kPa | 962.6
10503 kPa | 962.8
10519 kPa | 962.7
10538 kPa | 962.7
10553 kPa | 962.7
10572 kPa | 962.8
10588 kPa | 962.7
10604 kPa | 962.8
10620 kPa | 962.8
10639 kPa | 962.8
10656 kPa | 962.8
10672 kPa | 962.7
10692 kPa | 962.8
10708 kPa | 962.8
10725 kPa | 962.8
10741 kPa | 962.8
10761 kPa | 962.8
10777 kPa | 962.8
10794 kPa | 962.9
10814 kPa | 962.9
10831 kPa | 963
10851 kPa | 963
10868 kPa | 963
10885 kPa | 962.9
10902 kPa | 963
10923 kPa | 963
10939 kPa | 963
11105 kPa | 963.1
11376 kPa | 963.3
11395 kPa | 963.2
11414 kPa | 963.3
11433 kPa | 963.2
11455 kPa | 963.3
11474 kPa | 963.3
11493 kPa | 963.4
11516 kPa | 963.3
11535 kPa | 963.3
11558 kPa | 963.4
11577 kPa | 963.4
11597 kPa | 963.4
11616 kPa | 963.5
11640 kPa | 963.4
11659 kPa | 963.3
11979 kPa | 963.7
12025 kPa | 963.7
12045 kPa | 963.6
12070 kPa | 963.6
12091 kPa | 963.7
12113 kPa | 963.7
12138 kPa | 963.7
12159 kPa | 963.7
12181 kPa | 963.8
12205 kPa | 963.8
12226 kPa | 963.7
12252 kPa | 963.7
12274 kPa | 963.9
12296 kPa | 963.8
12322 kPa | 963.9
12344 kPa | 963.9
12367 kPa | 964
12389 kPa | 963.9
12416 kPa | 963.9
12438 kPa | 964
12488 kPa | 963.9
12510 kPa | 963.9
12533 kPa | 964.1
12583 kPa | 964.1
12606 kPa | 964.1
12634 kPa | 964.1
12680 kPa | 964.2
12756 kPa | 964.1
12832 kPa | 964.3
12856 kPa | 964.2
12884 kPa | 964.2
12908 kPa | 964.2
12937 kPa | 964.3
13227 kPa | 964.5
14188 kPa | 965.1
14278 kPa | 965.1
14314 kPa | 965
14343 kPa | 965.1
14609 kPa | 965.3
14641 kPa | 965.4
14675 kPa | 965.3
14706 kPa | 965.3
14744 kPa | 965.4
14917 kPa | 965.5
14957 kPa | 965.6
14988 kPa | 965.6
15013 kPa | 965.6
15044 kPa | 965.4
15070 kPa | 965.6
15097 kPa | 965.6
15124 kPa | 965.6
15154 kPa | 965.6
15175 kPa | 965.8
15192 kPa | 965.7
15213 kPa | 965.7
15230 kPa | 965.7
15251 kPa | 965.6
15268 kPa | 965.8
15287 kPa | 965.7
15328 kPa | 965.7
15347 kPa | 965.7
15381 kPa | 965.7
15629 kPa | 966.1
15638 kPa | 966.1
15649 kPa | 966
15707 kPa | 966
15727 kPa | 966
15736 kPa | 966
15745 kPa | 966
15765 kPa | 966.1
15774 kPa | 966.1
15785 kPa | 966.1
15794 kPa | 966
15804 kPa | 965.9
15814 kPa | 966
15824 kPa | 966.2
15833 kPa | 966.2
15844 kPa | 966.1
15863 kPa | 966.1
15903 kPa | 966.2
15953 kPa | 966.3
15962 kPa | 966.3
15972 kPa | 966.2
15981 kPa | 966.2
15992 kPa | 966.3
16003 kPa | 966.2
16012 kPa | 966.2
16021 kPa | 966.3
16033 kPa | 966.3
16042 kPa | 966.2
16052 kPa | 966.3
16063 kPa | 966.3
16072 kPa | 966.3
16083 kPa | 966.2
16092 kPa | 966.3
16102 kPa | 966.3
16112 kPa | 966.2
16123 kPa | 966.2
16133 kPa | 966.3
16142 kPa | 966.4
16154 kPa | 966.3
16163 kPa | 966.3
16175 kPa | 966.3
16184 kPa | 966.3
16194 kPa | 966.4
16203 kPa | 966.4
16215 kPa | 966.3
16224 kPa | 966.3
16234 kPa | 966.5
16246 kPa | 966.4
16256 kPa | 966.3
16267 kPa | 966.4
16277 kPa | 966.3
16286 kPa | 966.4
16296 kPa | 966.5
16308 kPa | 966.3
16317 kPa | 966.4
16329 kPa | 966.4
16339 kPa | 966.3
16349 kPa | 966.4
16360 kPa | 966.4
16370 kPa | 966.6
16380 kPa | 966.4
16390 kPa | 966.3
16402 kPa | 966.4
16412 kPa | 966.4
16422 kPa | 966.5
16434 kPa | 966.6
16443 kPa | 966.5
16455 kPa | 966.5
16465 kPa | 966.5
16475 kPa | 966.5
16487 kPa | 966.6
16496 kPa | 966.5
16507 kPa | 966.6
16519 kPa | 966.6
16529 kPa | 966.6
16539 kPa | 966.6
16551 kPa | 966.5
16562 kPa | 966.6
16572 kPa | 966.5
16582 kPa | 966.6
16594 kPa | 966.5
16604 kPa | 966.7
16614 kPa | 966.6
16626 kPa | 966.8
16636 kPa | 966.6
16649 kPa | 966.4
16657 kPa | 966.6
16670 kPa | 966.7
16680 kPa | 966.6
16692 kPa | 966.6
16702 kPa | 966.7
16712 kPa | 966.6
16725 kPa | 966.6
16735 kPa | 966.7
16823 kPa | 966.7
16834 kPa | 966.7
16844 kPa | 966.8
16857 kPa | 966.6
